Test results as given in US12509714B2, “Multiple heteroresistance to guide combination antibiotic regimens” (priority 2018, dated 2025).
Entries after “also recorded” stand apart in the source; their conditions may differ. Read-outs that look alike come from different tables or passages of the source.

Experiments:
[1] = test system: Enterobacter cloacae isolate Mu208; test: Frequency of resistant subpopulations of Mu208 on antibiotic treatment and after subculture without antibiotic; assay type: cell-based; conditions: for frequency of resistant subpopulation upon subculture in the absence of antibiotic: antibiotic-free subculture; for frequency of the respective resistant subpopulation on treatment: in the presence of the antibiotic
[2] = test system: Enterobacter cloacae isolate Mu208; assay type: cell-based; conditions: for resistance status of Mu208 by PAP: Mueller Hinton agar, 0-4 times the breakpoint
Description: (§1) Population analysis profile. Population analysis profiles (PAPs) were conducted. Briefly, solid agar plates were made for each antibiotic at 7 concentrations containing 0, 0.125, 0.25, 0.5, 1, 2 and 4 times the breakpoint, using Mueller Hinton agar. Breakpoint concentrations for Enterobacteriaceae from CLSI (amikacin 64 ug/mL, gentamicin 16 ug/mL, tobramycin 16 ug/mL, ampicillin 32 ug/mL, aztreonam 16 ug/mL, cefazolin 32 ug/mL, cefepime 16 ug/mL, ceftazidime 16 ug/mL, meropenem 4 ug/mL, piperacillin/tazobactam 128/4 ug/mL, ciprofloxacin 1 ug/mL, fosfomycin 256 ug/mL (breakpoint for UPEC; 25 mg/L glucose-6-phosphate added to the media), tetracycline 16 ug/mL, trimethoprim/sulfamethoxazole 4/76 ug/mL), FDA (tigecycline 8 ug/mL), or EUCAST (colistin 4 ug/mL) were used. Dual PAPs were made similarly, with both drugs in each plate at the same multiple of their respective breakpoint (0, 0.125, 0.25, 0.5, 1, 2, 4 times the breakpoint). Isolates to be tested were grown up overnight in Mueller Hinton broth from a single colony isolated from a frozen stock. Serial microdilutions were plated at each concentration of antibiotic. Colonies were enumerated after overnight growth at 37° C. An isolate was classified as resistant if the number of colonies that grew at the breakpoint concentration were at least 50% of those that grew on antibiotic free plates. If an isolate was not resistant, it was classified as heteroresistant if the number of colonies that grew at 2 or 4 times the breakpoint were at least 0.0001% (1 in 10^6) of those that grew on antibiotic free plates. If isolates were neither classified as resistant or heteroresistant, they were classified as susceptible.

Mu208 ΔphoQ = test: Resistant subpopulations in the Mu208 phoQ deletion mutant; assay type: cell-based, Enterobacter cloacae; conditions: compared with parental Mu208
Text: Colistin heteroresistance in Enterobacter requires the two-component system histidine kinase PhoQ which we deleted from Mu208 to test whether colistin heteroresistance was linked to ceftazidime or fosfomycin heteroresistance.
Cloning and mutagenesis. Mu208 ΔphoQ was generated by lambda red recombination. Briefly, a kanamycin cassette flanked by FRT sites with homology to the regions directly upstream and downstream, respectively, of the phoQ open reading frame (ORF) was inserted into the phoQ ORF in Mu208 with pKD46-tet, prior to it being removed with a flp recombinase encoded on the temperature sensitive plasmid, PCP20.

Mu819 = test: Susceptible control isolate Mu819 (designation, PAP, time kill); assay type: cell-based
Description: (§2) Bacterial isolates. Enterobacter cloacae isolate Mu208 was isolated from a urine sample at an Atlanta area hospital. […] Carbapenem-resistant Enterobacteriaceae (CRE) were collected between 2013 and 2015 by the Georgia EIP MuGSI. The CDC for provided pan-resistant Klebsiella pneumoniae isolates AR0040 and Nevada-2016.
as §1
Time kills. Time kills were conducted. Briefly, 10^6 CFU/mL bacteria from an overnight culture were inoculated into 2 mL MH media in culture tubes (Globe Scientific) with and without antibiotic(s). The following concentrations were used: colistin 16 μg/mL, ceftazidime 128 μg/mL, fosfomycin 256 μg/mL (+25 mg/L Glucose-6-Phosphate (G6P)), ampicillin 128 μg/mL (FIG. 1e-h and Supplementary FIG. 2), fosfomycin 256 μg/mL (+25 mg/L G6P), trimethoprim 4 μg/mL sulfamethoxazole 76 μg/mL, amikacin 64 μg/mL, and piperacillin 256 μg/mL tazobactam 4 μg/mL (FIGS. 5C, D, G, H). […] CFU were determined by serial diluting bacteria in PBS prior to plating on MH agar plates at various timepoints in the assay (0, 1, 2, 4, 6, 8, 10, 24, and 48 hour timepoints were used for time-kills). […]

Mu1176 = test: Control isolate Mu1176, resistance designation; assay type: cell-based
Text: as §2

[3] = test system: Enterobacter cloacae isolate Mu208; assay type: cell-based; conditions: for initial reduction in bacterial levels: ceftazidime 128, ampicillin 128 μg/mL
Description: (§3) Time kills. Time kills were conducted. Briefly, 10^6 CFU/mL bacteria from an overnight culture were inoculated into 2 mL MH media in culture tubes (Globe Scientific) with and without antibiotic(s). The following concentrations were used: colistin 16 μg/mL, ceftazidime 128 μg/mL, fosfomycin 256 μg/mL (+25 mg/L Glucose-6-Phosphate (G6P)), ampicillin 128 μg/mL (FIG. 1e-h and Supplementary FIG. 2), fosfomycin 256 μg/mL (+25 mg/L G6P), trimethoprim 4 μg/mL sulfamethoxazole 76 μg/mL, amikacin 64 μg/mL, and piperacillin 256 μg/mL tazobactam 4 μg/mL (FIGS. 5C, D, G, H). Cultures were incubated at 37° C. shaking at 250 RPM for 1-48 hours. CFU were determined by serial diluting bacteria in PBS prior to plating on MH agar plates at various timepoints in the assay (0, 1, 2, 4, 6, 8, 10, 24, and 48 hour timepoints were used for time-kills). In FIG. 1E-H, serially diluted bacteria were also plated on MH agar plates with antibiotic added (colistin 16 μg/mL, ceftazidime128 μg/mL, fosfomycin 256 μg/mL(+25 mg/L G6P), and ampicillin 128 μg/mL). In FIGS. 5D, H culture tubes were imaged with a Canon EOS Rebel T3i.

Mu712 = test system: Mu712
Text: as §2

[4] = test system: carbapenem-resistant Enterobacteriaceae (CRE) clinical isolates; test: PAP screen of 104 CRE clinical isolates for heteroresistance to 16 antibiotics; assay type: cell-based; conditions: 104 CRE isolates
Description: as §1, with “If an isolate was not resistant, it was classified as heteroresistant if the number of colonies that grew at 2 or 4 times the breakpoint were at least 0.0001% (1 in 10^6) of those that grew on antibiotic free plates. If isolates were neither classified as resistant or heteroresistant, they were classified as susceptible.” left out

Mu661 = test: Control isolate Mu661, resistance designation; assay type: cell-based
Text: as §2

[5] = test system: pan-resistant Klebsiella pneumoniae isolate Nevada-2016; assay type: cell-based; conditions: breakpoint concentration
Description: as §3

[6] = test system: pan-resistant Klebsiella pneumoniae isolate Nevada-2016; assay type: cell-based
Description: as §1

[7] = test system: pan-resistant Klebsiella pneumoniae isolate AR0040; assay type: cell-based; conditions: amikacin 64 μg/mL; piperacillin 256 μg/mL tazobactam 4 μg/mL
Description: as §3

[8] = colistin 16, ceftazidime 128, fosfomycin 256 μg/mL

| Molecule | frequency of resistant subpopulation upon subculture in the absence of antibiotic [1] | frequency of the respective resistant subpopulation on treatment [1] | resistance status of Mu208 by PAP [2] | concentration at which the resistant subpopulation survived ([2]; PAP) | resistance designation of control isolate Mu819 (Mu819) | resistance designation of control isolate Mu1176 (Mu1176) | behaviour of resistant subpopulation / outgrowth in the presence of the single antibiotic [3, 8] | activity in combination with ampicillin [2] | activity in combination with ampicillin [3] | initial reduction in bacterial levels ([3]; single antibiotic) | proportion of the isolates exhibiting heteroresistance [4] | other results |
| --- | --- | --- | --- | --- | --- | --- | --- | --- | --- | --- | --- | --- |
| colistin | returned to the baseline levels | robust increase | heteroresistance | 4 fold the breakpoint | susceptible | resistant | expanded exponentially |  |  |  |  | MIC of resistant subpopulation relative to the susceptible cells in the population ([2]; PAP): at least 32 fold; Mu208 cells killed by a concentration below the clinical breakpoint ([2]; PAP): Roughly 4 logs; activity in combination with ampicillin ([2]; dual PAP with ampicillin): not enhanced; resistant subpopulation in the phoQ mutant (Mu208 ΔphoQ): absent; killing of representative susceptible isolate in PAP (Mu819; concentration below the breakpoint, isolate not named at b160, Mu819): all the cells of a representative susceptible isolate were killed; outcome of treatment of a susceptible strain in time kill (Mu819; strain not named at b162, Mu819): eradicated; behaviour of resistant subpopulation / outgrowth in the presence of the single antibiotic ([3]; colistin 16, ceftazidime 128, fosfomycin 256 μg/mL, listed as Colistin): unable to prevent subsequent outgrowth; time within which the susceptible cells were killed ([3]; single antibiotic, colistin 16 μg/mL): one; activity in combination with ampicillin ([3]; time-kill with ampicillin): not enhanced |
| CC(C)(O/N=C(\C(=O)N[C@@H]1C(=O)N2C(C(=O)[O-])=C(C[n+]3ccccc3)CS[C@H]12)c1csc(N)n1)C(=O)O [ceftazidime] | returned to the baseline levels | robust increase | heteroresistance |  |  | resistant |  | not enhanced | not enhanced | killing was delayed |  | concentration at which the resistant subpopulation survived [2]: 4 fold the breakpoint; resistance designation of control isolate Mu712 (Mu712): susceptible; behaviour of resistant subpopulation / outgrowth in the presence of the single antibiotic [3]: rapidly increased in number; also recorded: unable to prevent subsequent outgrowth |
| CC1(C)S[C@@H]2[C@H](NC(=O)[C@H](N)c3ccccc3)C(=O)N2[C@H]1C(=O)O [ampicillin] |  | constant | homogenous resistance |  |  | resistant |  |  |  | did not lead to the initial reduction in bacterial levels | 1.0% | killing of cells in PAP ([2]; any of the concentrations tested): lack of significant killing; resistance designation of control isolate Mu661 (Mu661): susceptible |
| C[C@@H]1O[C@@H]1P(=O)(O)O [fosfomycin] | returned to the baseline levels | robust increase | heteroresistance | 4 fold the breakpoint | susceptible | resistant | rapidly increased in number; also recorded: unable to prevent subsequent outgrowth | not enhanced | not enhanced |  | 72.1% | killing of Nevada-2016 by single antibiotic [5]: killing of a significant proportion of the bacteria |
| NCC[C@H](O)C(=O)N[C@@H]1C[C@H](N)[C@@H](O[C@H]2O[C@H](CN)[C@@H](O)[C@H](O)[C@H]2O)[C@H](O)[C@H]1O[C@H]1O[C@H](CO)[C@@H](O)[C@H](N)[C@H]1O [amikacin] |  |  |  |  |  |  |  |  |  |  |  | resistance status of Nevada-2016 by PAP [6]: homogenous resistance; initial killing of AR0040 by single drug [7]: significant initial killing |
